Data on 20 compounds can be found in patent US8017612B2, “Piperazine compound and use thereof as a HCV polymerase inhibitor” (priority 2006, dated 2011).

Assay [1] has as its target T1, HCV polymerase (NS5B) type 1b (Hepatitis C virus genotype 1b, UniProt P26663).
T1 construct: a region encoding NS5B (J Virol 1991 March, 65(3), 1105-13, 544 amino acids after deletion of 47 amino acids on the C-terminal); 6xHis (C); made in house; host or cells: Escherichia coli
Kind of assay: Assay of enzyme (HCV polymerase) inhibitory activity, type 1b enzyme. Type of assay: biochemical, HCV BK strain (type 1b). The following applies: HCV polymerase inhibitory activity (IC50), 1b, type 1b enzyme 0.5 μg/ml, 25° C., 60 min. A digest of the protocol:
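IC50 derived from [3H]UTP incorporation into TCA-insoluble RNA, compared with and without test compound. Reaction (25 °C, 60 min, Tris pH 7.5, 5 mM MgCl2): E. coli-expressed 1b NS5B Δ47 with His tag at 0.5 μg/ml, 5 μg/ml run-off substrate RNA, ATP/GTP/CTP 50 μM, UTP 2 μM.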

Assay [2] concerns the target T2, HCV polymerase (NS5B) type 1a (Hepatitis C virus genotype 1a, UniProt P26664).
T2 construct: made in house; host or cells: Escherichia coli (by the 'similar method' of the 1b enzyme)
In words: Assay of enzyme (HCV polymerase) inhibitory activity, type 1a enzyme. The class given is biochemical, HCV type 1a (cloned from the blood of patients). The following applies: HCV polymerase inhibitory activity (IC50), 1a, type 1a enzyme 1.5 μg/ml, 25° C., 60 min. A digest of the protocol: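 Reactions ran 60 min at 25° C in 20 mM Tris-HCl pH 7.5, 5 mM MgCl2, 50 mM NaCl, holding genotype 1a NS5B (1.5 μg/ml, Δ47 C-terminus, 6His), substrate RNA 5 μg/ml, UTP 2 μM with tritiated UTP and other NTPs 50 μM. IC50 derived from incorporated radiolabel in filter-trapped RNA relative to uninhibited reaction.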

Take `CC(C)c1ccc(CNC(=O)[C@H]2CN(c3cnc(N)cn3)CCN2S(=O)(=O)c2ccc(C(F)(F)F)cc2)cc1` [Example 471, (R)-5′-amino-4-(4-trifluoromethyl-benzenesulfonyl)-3,4,5,6-tetrahydro-2H-[1,2′]bipyrazinyl-3-carboxylic acid 4-isopropyl-benzylamide]: the IC50 (in general, the concentration needed to halve the response being measured) in assay [1] is below 100 nM; in assay [2] it was 100 to 1000 nM.

Take `CCCc1ccc(CNC(=O)[C@H]2CN(c3cnccn3)CCN2S(=O)(=O)c2ccc(OC(F)(F)F)cc2)cc1` [Example 472, (R)-4-(4-trifluoromethoxy-benzenesulfonyl)-3,4,5,6-tetrahydro-2H-[1,2′]bipyrazinyl-3-carboxylic acid 4-propyl-benzylamide]: the IC50 in assay [1] and in assay [2] was below 100 nM throughout.

As to `COCc1ccc(CNC(=O)[C@H]2CN(c3cnc(C(=O)O)cn3)CCN2S(=O)(=O)c2ccc(OC(F)(F)F)cc2)cc1` [Example 473, (R)-3-(4-methoxymethyl-benzylcarbamoyl)-4-(4-trifluoromethoxy-benzenesulfonyl)-3,4,5,6-tetrahydro-2H-[1,2′]bipyrazinyl-5′-carboxylic acid], the IC50 in assay [1] and in assay [2] was below 100 nM throughout.

Take `CCCc1ccc(CNC(=O)[C@H]2CN(c3cnc(C(=O)O)cn3)CCN2S(=O)(=O)c2ccc(OC(F)(F)F)cc2)c(Cl)c1` [Example 474, (R)-3-(2-chloro-4-propyl-benzylcarbamoyl)-4-(4-trifluoromethoxy-benzenesulfonyl)-3,4,5,6-tetrahydro-2H-[1,2′]bipyrazinyl-5′-carboxylic acid]: the IC50 in assay [1] and in assay [2] was below 100 nM in each case.

With `CCCc1ccc(CNC(=O)[C@H]2CN(C(=O)Nc3nc(CC(=O)N4CCOCC4)cs3)CCN2S(=O)(=O)c2ccc(OC(F)(F)F)cc2)cc1` [Example 475, (R)-4-(4-trifluoromethoxy-benzenesulfonyl)-piperazine-1,3-dicarboxylic acid 1-{[4-(2-morpholin-4-yl-2-oxo-ethyl)-thiazol-2-yl]-amide} 3-(4-propyl-benzylamide)], the IC50 in assay [1] is below 100 nM; in assay [2], 100 to 1000 nM.

As for `CCCc1ccc(CNC(=O)[C@H]2CN(C(=O)Nc3nc(CCO)cs3)CCN2S(=O)(=O)c2ccc(OC(F)(F)F)cc2)cc1` [Example 476, (R)-4-(4-trifluoromethoxy-benzenesulfonyl)-piperazine-1,3-dicarboxylic acid 1-{[4-(2-hydroxy-ethyl)-thiazol-2-yl]-amide} 3-(4-propyl-benzylamide)], the IC50 in assay [1] and in assay [2] was 100 to 1000 nM throughout.

`CCOC(=O)c1nnc(NC(=O)N2CCN(S(=O)(=O)c3ccc(OC(F)(F)F)cc3)[C@@H](C(=O)NCc3ccc(C(F)(F)CC)cc3)C2)s1` [Example 477, 5-{[(R)-3-[4-(1,1-difluoro-propyl)-benzylcarbamoyl]-4-(4-trifluoromethoxy-benzenesulfonyl)-piperazine-1-carbonyl]-amino}-[1,3,4]thiadiazole-2-carboxylic acid ethyl ester]: the concentration for half-maximal inhibition (IC50) in assay [1] and in assay [2] was above 1000 nM each time.

Turning to `CCCc1ccc(CNC(=O)[C@H]2CN(c3cnc(CO)cn3)CCN2S(=O)(=O)c2ccc(CC)cc2)cc1` [Example 478, (R)-4-(4-ethyl-benzenesulfonyl)-5′-hydroxymethyl-3,4,5,6-tetrahydro-2H-[1,2′]bipyrazinyl-3-carboxylic acid 4-propyl-benzylamide], the IC50 in assay [1] and in assay [2] was below 100 nM throughout.

As to `CCC(F)(F)c1ccc(CNC(=O)[C@H]2CN(C(=O)Cn3nnc(-c4ccccc4)n3)CCN2S(=O)(=O)c2ccc(OC(F)(F)F)cc2)cc1` [Example 479, (R)-4-[2-(5-phenyl-tetrazol-2-yl)-acetyl]-1-(4-trifluoromethoxy-benzenesulfonyl)-piperazine-2-carboxylic acid 4-(1,1-difluoro-propyl)-benzylamide], the IC50 in assay [1] and in assay [2] was below 100 nM in each case.

Regarding `CCC(F)(F)c1ccc(CNC(=O)[C@H]2CN(C(=O)Cc3cc(C)no3)CCN2S(=O)(=O)c2ccc(OC(F)(F)F)cc2)cc1` [Example 480, (R)-4-[2-(3-methyl-isoxazol-5-yl)-acetyl]-1-(4-trifluoromethoxy-benzenesulfonyl)-piperazine-2-carboxylic acid 4-(1,1-difluoro-propyl)-benzylamide], the IC50 in assay [1] and in assay [2] was below 100 nM throughout.

Turning to `CC(=O)N1CCN(S(=O)(=O)c2ccc(C(C)C)cc2)[C@@H](C(=O)NCc2ccc(-c3ccoc3)cc2)C1` [Example 481, (R)-4-acetyl-1-(4-isopropyl-benzenesulfonyl)-piperazine-2-carboxylic acid 4-furan-3-yl-benzylamide], the half-maximal inhibitory concentration (IC50) in assay [1] and in assay [2] was 100 to 1000 nM each time.

Regarding `CCC(F)(F)c1ccc(CNC(=O)[C@H]2CN(C(=O)Nc3nnc(CO)s3)CCN2S(=O)(=O)c2ccc(OC(F)(F)F)cc2)cc1` [Example 482, (R)-4-(4-trifluoromethoxy-benzenesulfonyl)-piperazine-1,3-dicarboxylic acid 3-[4-(1,1-difluoro-propyl)-benzylamide] 1-[(5-hydroxymethyl-[1,3,4]thiadiazol-2-yl)-amide]], the IC50 is below 100 nM in assay [1] and 100 to 1000 nM in assay [2].

For `CCC(F)(F)c1ccc(CNC(=O)[C@H]2CN(C(=O)Nc3nnc(C(C)=O)s3)CCN2S(=O)(=O)c2ccc(OC(F)(F)F)cc2)cc1` [Example 483, (R)-4-(4-trifluoromethoxy-benzenesulfonyl)-piperazine-1,3-dicarboxylic acid 1-[(5-acetyl-[1,3,4]thiadiazol-2-yl)-amide] 3-[4-(1,1-difluoro-propyl)-benzylamide]], the IC50 in assay [1] and in assay [2] was above 1000 nM in each case.

Consider `CCC(F)(F)c1ccc(CNC(=O)[C@H]2CN(C(=O)Nc3nnc(C(C)(C)O)s3)CCN2S(=O)(=O)c2ccc(OC(F)(F)F)cc2)cc1` [Example 484, (R)-4-(4-trifluoromethoxy-benzenesulfonyl)-piperazine-1,3-dicarboxylic acid 3-[4-(1,1-difluoro-propyl)-benzylamide] 1-{[5-(1-hydroxy-1-methyl-ethyl)-[1,3,4]thiadiazol-2-yl]-amide}], for which the IC50 in assay [1] is below 100 nM; in assay [2] it was 100 to 1000 nM.

With `CCCc1ccc(CNC(=O)[C@H]2CN(c3cnc(C(=O)O)cn3)CCN2S(=O)(=O)c2ccc(CC)cc2)c(Cl)c1` [Example 485, (R)-3-(2-chloro-4-propyl-benzylcarbamoyl)-4-(4-ethyl-benzenesulfonyl)-3,4,5,6-tetrahydro-2H-[1,2′]bipyrazinyl-5′-carboxylic acid], the half-inhibitory concentration (IC50) in assay [1] and in assay [2] was below 100 nM throughout.

In the case of `CCCc1ccc(CNC(=O)[C@H]2CN(c3cc(C)c(C(=O)OC)nn3)CCN2S(=O)(=O)c2ccc(OC(F)(F)F)cc2)cc1` [Example 486, 4-methyl-6-[(R)-3-(4-propyl-benzylcarbamoyl)-4-(4-trifluoromethoxy-benzenesulfonyl)-piperazin-1-yl]-pyridazine-3-carboxylic acid methyl ester], the IC50 in assay [1] and in assay [2] was below 100 nM in each case.

With `CCCc1ccc(CNC(=O)[C@H]2CN(c3cc(C)c(C(=O)O)nn3)CCN2S(=O)(=O)c2ccc(OC(F)(F)F)cc2)cc1` [Example 487, 4-methyl-6-[(R)-3-(4-propyl-benzylcarbamoyl)-4-(4-trifluoromethoxy-benzenesulfonyl)-piperazin-1-yl]-pyridazine-3-carboxylic acid], the IC50 in assay [1] and in assay [2] was below 100 nM in each case.

`CCC(F)(F)c1ccc(CNC(=O)[C@H]2CN(C(=O)Nc3nnc(C)s3)CCN2S(=O)(=O)c2ccc(OC(F)(F)F)cc2)cc1` [Example 488, (R)-4-(4-trifluoromethoxy-benzenesulfonyl)-piperazine-1,3-dicarboxylic acid 3-[4-(1,1-difluoro-propyl)-benzylamide] 1-[(5-methyl-[1,3,4]thiadiazol-2-yl)-amide]]: the IC50 in assay [1] was below 100 nM; in assay [2] it was 100 to 1000 nM.

Turning to `CCC(F)(F)c1ccc(CNC(=O)[C@H]2CN(C(=O)Nc3nnc(C(F)(F)F)s3)CCN2S(=O)(=O)c2ccc(OC(F)(F)F)cc2)cc1` [Example 489, (R)-4-(4-trifluoromethoxy-benzenesulfonyl)-piperazine-1,3-dicarboxylic acid 3-[4-(1,1-difluoro-propyl)-benzylamide] 1-[(5-trifluoromethyl-[1,3,4]thiadiazol-2-yl)-amide]], the IC50 in assay [1] and in assay [2] was above 1000 nM each time.

Regarding `CCC(F)(F)c1ccc(CNC(=O)[C@H]2CN(C(=O)Nc3ccnc(OC)c3)CCN2S(=O)(=O)c2ccc(OC(F)(F)F)cc2)cc1` [Example 490, (R)-4-(4-trifluoromethoxy-benzenesulfonyl)-piperazine-1,3-dicarboxylic acid 3-[4-(1,1-difluoro-propyl)-benzylamide] 1-[(2-methoxy-pyridin-4-yl)-amide]], the IC50 in assay [1] is 100 to 1000 nM; in assay [2], below 100 nM.
